Measurements from patent US20100286186A1, “NOVEL DICARBOXYLIC ACID LINKED AMINO ACID AND PEPTIDE PRODRUGS OF OPIOIDS AND USES THEREOF” (Shire LLC, priority 2009, published 2010).

How the values were obtained:
gut motility in the rat = assay: Charcoal propulsion test of GI motility in the rat; type: in vivo; conditions: oral
Procedure: Test treatments were administered to groups of up to 10 rats fasted overnight prior to the test.
Test treatments were administered orally 60 minutes prior to a 2.0 mL oral dose of a 10% suspension of charcoal in 5% gum arabic. Thirty minutes after dosing with charcoal, the rats were sacrificed and the entire gastro-intestinal tract quickly and carefully removed. The distance the charcoal meal had traveled from the pyloric sphincter toward the caecum was measured and expressed as a percentage of both the total gut length and the length of the small intestine.

[1] = Plasma pharmacokinetics of meptazinol dicarboxylate linked prodrugs after oral gavage to dogs; type: in vivo, dog; conditions: dog, oral gavage of prodrug, 1 mg meptazinol base equivalents/kg; for Dog Cmax (plasma prodrug levels, in brackets): prodrug level, BLQ = below 0.5 ng/mL
[2] = Comparative oral bioavailability of oxycodone from various dicarboxylate bridged amino acid prodrugs in dogs (nine-way crossover); type: in vivo, dog; conditions: 1 mg/kg oxycodone free base; for Cmax of oxycodone / T50% Cmax of oxycodone / AUC0-t of oxycodone: mean (±sd); for AUC0-t of oxycodone: t = last quantifiable time point
[3] = In vitro stability of dicarboxylate amino acid ester prodrugs in simulated gastric and intestinal juice, distilled water and pH 10 buffer (HPLC); conditions: for Simulated gastric fluid (pH 1.1): % remaining after 2 h/37° C.: pH 1.1, 2 h; for Distilled water (pH 5.9): % remaining after 2 h/20° C.: pH 5.9, 2 h; for Simulated intestinal fluid (pH 6.8): % remaining after 2 h/37° C.: pH 6.8, 2 h; for pH 10.0 buffer: % remaining after 2 h/20° C.: pH 10.0, 2 h

Structure (SMILES): COc1ccc2c3c1O[C@H]1[C@@H](O)C=C[C@H]4[C@@H](C2)N(C)CC[C@@]341 [Codeine phosphate hemihydrate]
- % change from vehicle-treated animals, small intestine (gut motility in the rat; 10 mg/kg): −22.0%
- % change from vehicle-treated animals, total gut length (gut motility in the rat; 10 mg/kg): −21.7%
- % change from vehicle-treated animals, small intestine (gut motility in the rat; 30 mg/kg): −32.1%
- % change from vehicle-treated animals, total gut length (gut motility in the rat; 30 mg/kg): −32.0%
- % change from vehicle-treated animals, small intestine (gut motility in the rat; 100 mg/kg): −35.1%
- % change from vehicle-treated animals, total gut length (gut motility in the rat; 100 mg/kg): −34.9%

Structure (SMILES): COc1ccc2c3c1O[C@H]1[C@@H](O)CC[C@H]4[C@@H](C2)N(C)CC[C@@]341.O=C(O)C(O)C(O)C(=O)O [Dihydrocodeine Hydrogen Tartrate, reference compound]
- % change from vehicle-treated animals, small intestine (gut motility in the rat; 10 mg/kg): −17.6%
- % change from vehicle-treated animals, total gut length (gut motility in the rat; 10 mg/kg): −16.3%
- % change from vehicle-treated animals, small intestine (gut motility in the rat; 30 mg/kg): −29.8%
- % change from vehicle-treated animals, total gut length (gut motility in the rat; 30 mg/kg): −30.5%
- % change from vehicle-treated animals, small intestine (gut motility in the rat; 100 mg/kg): −56.4%
- % change from vehicle-treated animals, total gut length (gut motility in the rat; 100 mg/kg): −57.0%
- % change from vehicle-treated animals, small intestine (gut motility in the rat; 300 mg/kg): −67.7%
- % change from vehicle-treated animals, total gut length (gut motility in the rat; 300 mg/kg): −68.0%

Structure (SMILES): CCC1(c2cccc(OC(=O)/C=C\C(=O)N[C@@H](Cc3ccccc3)C(=O)O)c2)CCCCN(C)C1 (stereo partly drawn) [Meptazinol [malearyl-(S)-phenylanine] ester]
- Dog Cmax (plasma prodrug levels, in brackets) [1]: 1.7 ng/mL

Structure (SMILES): CCC1(c2cccc(OC(=O)CC(=O)NC(C(=O)O)C(C)C)c2)CCCCN(C)C1 [Meptazinol [malonyl-(S)-valine] ester]
- Dog Cmax (plasma prodrug levels, in brackets) [1]: 44 ng/mL

Structure (SMILES): CCC1(c2cccc(OC(=O)CC(=O)Nc3ccc(C(=O)O)cc3)c2)CCCCN(C)C1 (stereo not drawn) [Meptazinol [malonyl-PABA] ester]
- Dog Cmax (plasma meptazinol) ([1]; meptazinol level): 2.1 ng/mL

Structure (SMILES): COc1ccc2c3c1O[C@H]1C(OC(=O)CCC(=O)N4CCC[C@H]4C(=O)O)=CC[C@@]4(O)[C@@H](C2)N(C)CC[C@]314 [Oxycodone succinyl proline ester]
- F % (absolute oral bioavailability of oxycodone) [2]: 20.8%
- Cmax of oxycodone [2]: 20.1 (±4.60) ng/mL
- T50% Cmax of oxycodone [2]: 3.4 (±0.9) h.
- AUC0-t of oxycodone [2]: 75.2 (±13.7) h. * ng/mL
- Simulated gastric fluid (pH 1.1): % remaining after 2 h/37° C. [3]: 98%
- Distilled water (pH 5.9): % remaining after 2 h/20° C. [3]: 100%
- Simulated intestinal fluid (pH 6.8): % remaining after 2 h/37° C. [3]: 96%
- pH 10.0 buffer: % remaining after 2 h/20° C. [3]: 80%

Structure (SMILES): CC[C@H](C)[C@H](NC(=O)CCCC(=O)OC1=CC[C@@]2(O)[C@H]3Cc4ccc(OC)c5c4[C@@]2(CCN3C)[C@H]1O5)C(=O)O [Oxycodone-Glutaryl-Ile Enol Ester, oxycodone-[glutaryl-(S)-isoleucine]enol ester]
- F % (absolute oral bioavailability of oxycodone) [2]: 37.4%
- Cmax of oxycodone [2]: 46.8 (±15.0) ng/mL
- T50% Cmax of oxycodone [2]: 2.8 (±0.2) h.
- AUC0-t of oxycodone [2]: 135.7 (±27.9) h. * ng/mL
- Simulated gastric fluid (pH 1.1): % remaining after 2 h/37° C. [3]: 98%
- Distilled water (pH 5.9): % remaining after 2 h/20° C. [3]: 100%
- Simulated intestinal fluid (pH 6.8): % remaining after 2 h/37° C. [3]: 80%
- pH 10.0 buffer: % remaining after 2 h/20° C. [3]: 80%

Structure (SMILES): COc1ccc2c3c1O[C@H]1C(OC(=O)CCCC(=O)N[C@H](C(=O)O)C(C)C)=CC[C@@]4(O)[C@@H](C2)N(C)CC[C@]314 [Oxycodone-Glutaryl-Val Enol Ester, oxycodone-[glutaryl-(S)-valine] enol ester]
- T50% Cmax of oxycodone [2]: 2.9 (±0.3) h.
- Simulated gastric fluid (pH 1.1): % remaining after 2 h/37° C. [3]: 98%
- Distilled water (pH 5.9): % remaining after 2 h/20° C. [3]: 100%
- Simulated intestinal fluid (pH 6.8): % remaining after 2 h/37° C. [3]: 87%
- pH 10.0 buffer: % remaining after 2 h/20° C. [3]: 75%

Structure (SMILES): COc1ccc2c3c1O[C@H]1C(OC(=O)CCC(=O)N[C@@H](Cc4ccccc4)C(=O)O)=CC[C@@]4(O)[C@@H](C2)N(C)CC[C@]314 [Oxycodone-Succinyl-Phe Enol Ester, oxycodone-[succinyl-(S)-phenylalanine]enol ester]
- Simulated gastric fluid (pH 1.1): % remaining after 2 h/37° C. [3]: 99%
- Distilled water (pH 5.9): % remaining after 2 h/20° C. [3]: 100%
- Simulated intestinal fluid (pH 6.8): % remaining after 2 h/37° C. [3]: 3%
- pH 10.0 buffer: % remaining after 2 h/20° C. [3]: 65%
